# Laboratory results taken from patent publication US6737383B1, “Herbicidal oxadiazolidines” (priority 1999, dated 2004).
# Tests used:
# cocklebur = assay: Test B pre/postemergence cocklebur; format: in vivo, Xanthium strumarium
# How it was run: (§1)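 Response is a visual 0-to-10 score relative to untreated plants, where 0 means no effect and 10 means complete control, taken twelve to sixteen days after application. Treatments went onto soil at planting and onto foliage of 1- to 4-leaf plants, using a surfactant-containing non-phytotoxic solvent.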
# corn = assay: Test B pre/postemergence corn; format: in vivo, Zea mays
# How it was run: as §1
# crabgrass = assay: Test B pre/postemergence crabgrass; format: in vivo, Digitaria sanguinalis
# How it was run: as §1
# giant foxtail = assay: Test B pre/postemergence giant foxtail; format: in vivo, Setaria faberii
# How it was run: as §1
# morningglory = assay: Test B pre/postemergence morningglory; format: in vivo, Ipomoea hederacea
# How it was run: as §1
# pigweed = assay: Test B pre/postemergence pigweed; format: in vivo, Amaranthus retroflexus
# How it was run: as §1
# rape = assay: Test B pre/postemergence rape; format: in vivo, Brassica napus
# How it was run: as §1
# soybean = assay: Test B pre/postemergence soybean; format: in vivo, Glycine max
# How it was run: as §1
# sugar beet = assay: Test B pre/postemergence sugar beet; format: in vivo, Beta vulgaris
# How it was run: as §1
# velvetleaf = assay: Test B pre/postemergence velvetleaf; format: in vivo, Abutilon theophrasti
# How it was run: as §1
# wheat = assay: Test B pre/postemergence wheat; format: in vivo, Triticum aestivum
# How it was run: as §1
# wild oat = assay: Test B pre/postemergence wild oat; format: in vivo, Avena fatua
# How it was run: as §1
# purple nutsedge = assay: Test B pre/postemergence purple nutsedge; format: in vivo, Cyperus rotundus
# How it was run: as §1
# rice = assay: Test B flood test rice; format: in vivo, Oryza sativa
# How it was run: (§2)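 Read-out is a visual response score from 0 (no effect) to 10 (complete control), assigned by comparison with untreated controls. Treatment was applied at the 2-leaf stage, and plants stayed in the greenhouse for twelve to sixteen days before scoring.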
# smallflower flatsedge = assay: Test B flood test smallflower flatsedge; format: in vivo, Cyperus difformis; conditions: for S. Flatsedge plant response rating: scale of 0 to 10 where 0 is no effect and 10 is complete control
# How it was run: as §2
# duck salad = assay: Test B flood test duck salad; format: in vivo, Heteranthera limosa
# How it was run: as §2
# [1] = Postemergence, Rate 125 g/ha, scale of 0 to 10 where 0 is no effect and 10 is complete control
# [2] = Preemergence, Rate 62 g/ha, scale 0 to 10 (0 no effect, 10 complete control)
# [3] = Preemergence, Rate 125 g/ha, 0 is no effect, 10 is complete control
# [4] = Preemergence, Rate 250 g/ha, scale 0 to 10, 0 is no effect, 10 is complete control
# [5] = Preemergence, Rate 500 g/ha, scale 0 to 10 (0 no effect, 10 complete control)
# [6] = Rate 62 g/ha, Postemergence, scale of 0 to 10 where 0 is no effect and 10 is complete control
# [7] = Rate 250 g/ha, Postemergence, scale 0 to 10, 0 is no effect, 10 is complete control
# [8] = Rate 500 g/ha, Postemergence, scale 0 to 10
# [9] = Postemergence (flood test species), Rate 125 g/ha, scale of 0 to 10 where 0 is no effect and 10 is complete control
# [10] = Rate 31 g/ha, Postemergence section (flood test species), scale 0 to 10
# [11] = Rate 62 g/ha, Postemergence section, flood test species, scale of 0 to 10 where 0 is no effect and 10 is complete control
# [12] = Rate 250 g/ha, Postemergence (flood test), scale 0 to 10, 0 is no effect, 10 is complete control
compound,measurement,setting,value
CC(C)N(C(=O)n1oc(=O)n(C)c1=O)c1ccc(Cl)cc1 [Compound 137],Cocklebur plant response rating,cocklebur; [1],0
same,Cocklebur plant response rating,cocklebur; [2],0
same,Cocklebur plant response rating (0 to 10 scale),cocklebur; [3],0
same,Cocklebur plant response rating,cocklebur; [4],0
same,Cocklebur plant response rating,cocklebur; [5],0
same,Cocklebur plant response rating,cocklebur; [6],0
same,"Plant response rating, Cocklebur",cocklebur; [7],3
same,Cocklebur plant response rating,cocklebur; [8],4
same,Corn plant response rating,corn; [1],0
same,Corn plant response rating,corn; [2],0
same,Corn plant response rating (0 to 10 scale),corn; [3],0
same,Corn plant response rating,corn; [4],0
same,Corn plant response rating,corn; [5],4
same,Corn plant response rating,corn; [6],0
same,"Plant response rating, Corn",corn; [7],3
same,Corn plant response rating,corn; [8],5
same,Crabgrass plant response rating,crabgrass; [1],8
same,Crabgrass plant response rating,crabgrass; [2],8
same,Crabgrass plant response rating (0 to 10 scale),crabgrass; [3],10
same,Crabgrass plant response rating,crabgrass; [4],10
same,Crabgrass plant response rating,crabgrass; [5],10
same,Crabgrass plant response rating,crabgrass; [6],7
same,"Plant response rating, Crabgrass",crabgrass; [7],9
same,Crabgrass plant response rating,crabgrass; [8],9
same,Giant foxtail plant response rating,giant foxtail; [1],8
same,Giant foxtail plant response rating,giant foxtail; [2],8
same,Giant foxtail plant response rating (0 to 10 scale),giant foxtail; [3],9
same,Giant foxtail plant response rating,giant foxtail; [4],10
same,Giant foxtail plant response rating,giant foxtail; [5],10
same,Giant foxtail plant response rating,giant foxtail; [6],8
same,"Plant response rating, Giant foxtail",giant foxtail; [7],9
same,Giant foxtail plant response rating,giant foxtail; [8],9
same,Morningglory plant response rating,morningglory; [1],7
same,Morningglory plant response rating,morningglory; [2],0
same,Morningglory plant response rating (0 to 10 scale),morningglory; [3],0
same,Morningglory plant response rating,morningglory; [4],0
same,Morningglory plant response rating,morningglory; [5],1
same,Morningglory plant response rating,morningglory; [6],7
same,"Plant response rating, Morningglory",morningglory; [7],7
same,Morningglory plant response rating,morningglory; [8],8
same,Redroot pigweed plant response rating,pigweed; [1],4
same,Redroot pigweed plant response rating,pigweed; [2],9
same,Redroot pigweed plant response rating (0 to 10 scale),pigweed; [3],10
same,Redroot pigweed plant response rating,pigweed; [4],10
same,Redroot pigweed plant response rating,pigweed; [5],10
same,Redroot pigweed plant response rating,pigweed; [6],2
same,"Plant response rating, Redroot pigweed",pigweed; [7],5
same,Redroot pigweed plant response rating,pigweed; [8],6
same,Rape plant response rating,rape; [2],0
same,Rape plant response rating (0 to 10 scale),rape; [3],4
same,Rape plant response rating,rape; [4],10
same,Rape plant response rating,rape; [5],10
same,Rape plant response rating,rape; [6],0
same,"Plant response rating, Rape",rape; [7],6
same,Rape plant response rating,rape; [8],7
same,Soybean plant response rating,soybean; [1],6
same,Soybean plant response rating,soybean; [2],0
same,Soybean plant response rating (0 to 10 scale),soybean; [3],0
same,Soybean plant response rating,soybean; [4],3
same,Soybean plant response rating,soybean; [5],5
same,Soybean plant response rating,soybean; [6],5
same,"Plant response rating, Soybean",soybean; [7],7
same,Soybean plant response rating,soybean; [8],8
same,Sugarbeets plant response rating,sugar beet; [1],3
same,Sugarbeets plant response rating,sugar beet; [2],6
same,Sugarbeets plant response rating (0 to 10 scale),sugar beet; [3],10
same,Sugarbeets plant response rating,sugar beet; [4],10
same,Sugarbeets plant response rating,sugar beet; [5],10
same,Sugarbeets plant response rating,sugar beet; [6],3
same,"Plant response rating, Sugarbeets",sugar beet; [7],5
same,Sugarbeets plant response rating,sugar beet; [8],6
same,Velvetleaf plant response rating,velvetleaf; [1],0
same,Velvetleaf plant response rating,velvetleaf; [2],3
same,Velvetleaf plant response rating (0 to 10 scale),velvetleaf; [3],6
same,Velvetleaf plant response rating,velvetleaf; [4],7
same,Velvetleaf plant response rating,velvetleaf; [5],10
same,Velvetleaf plant response rating,velvetleaf; [6],0
same,"Plant response rating, Velvetleaf",velvetleaf; [7],4
same,Velvetleaf plant response rating,velvetleaf; [8],5
same,Wheat plant response rating,wheat; [1],0
same,Wheat plant response rating,wheat; [2],0
same,Wheat plant response rating (0 to 10 scale),wheat; [3],4
same,Wheat plant response rating,wheat; [4],5
same,Wheat plant response rating,wheat; [5],5
same,Wheat plant response rating,wheat; [6],0
same,"Plant response rating, Wheat",wheat; [7],5
same,Wheat plant response rating,wheat; [8],6
same,Wild oats plant response rating,wild oat; [1],2
same,Wild oats plant response rating,wild oat; [2],5
same,Wild oats plant response rating (0 to 10 scale),wild oat; [3],8
same,Wild oats plant response rating,wild oat; [4],9
same,Wild oats plant response rating,wild oat; [5],10
same,Wild oats plant response rating,wild oat; [6],1
same,"Plant response rating, Wild oats",wild oat; [7],4
same,Wild oats plant response rating,wild oat; [8],5
same,Nutsedge plant response rating,purple nutsedge; [1],0
same,Nutsedge plant response rating,purple nutsedge; [2],0
same,Nutsedge plant response rating (0 to 10 scale),purple nutsedge; [3],0
same,Nutsedge plant response rating,purple nutsedge; [4],0
same,Nutsedge plant response rating,purple nutsedge; [6],0
same,"Plant response rating, Nutsedge",purple nutsedge; [7],3
same,Nutsedge plant response rating,purple nutsedge; [8],4
same,Rice plant response rating,rice; [9],0
same,Rice plant response rating,rice; [10],0
same,Rice plant response rating,rice; [11],0
same,"Plant response rating, Rice",rice; [12],0
same,S. Flatsedge plant response rating,"smallflower flatsedge; Postemergence (flood test species), Rate 125 g/ha",0
same,S. Flatsedge plant response rating,"smallflower flatsedge; Rate 62 g/ha, Postemergence section, flood test species",0
same,"Plant response rating, S. Flatsedge",smallflower flatsedge; [12],0
same,Ducksalad plant response rating,duck salad; [9],0
same,Ducksalad plant response rating,duck salad; [10],0
same,Ducksalad plant response rating,duck salad; [11],0
same,"Plant response rating, Ducksalad",duck salad; [12],0
